Patent US8247596B2 (Sumitomo Chemical Company, Limited, priority 2007, dated 2012)

Columns and labels:
Format in all cases: in vivo
Musca domestica = experiment: Test Example 4: filter paper/sucrose bait test on Musca domestica; conditions: 24 h, read-out: pest death rate
Description: A formulation of any one of the present compounds (1), (4), (5), (7), (11), (12), (13), (18t), (18c), (19), (20), (21), (22), (24), (25t), (25c), (26t), (26c), (27), (29), (30), (31), (32), (33), (34), (35), (40), (41), (43), (49), (50) and (55) obtained according to Formulation Example 36 was diluted with water so that the active ingredient concentration was 500 ppm to obtain a test solution.
(§1) A filter paper having a diameter of 5.5 cm was spread on the bottom of a polyethylene cup having a diameter of 5.5 cm and 0.7 ml of the test solution was added dropwise onto the filter paper. As a bait 30 mg of sucrose was uniformly placed on the filter paper. Into the polyethylene cup, 10 female imagoes of Musca domestica were released and the cup was sealed with a lid. After 24 hours, the number of surviving Musca domestica was examined and the death rate of the pest was calculated.

Blattalla germanica = experiment: Test Example 5: filter paper/sucrose bait test on Blattalla germanica; conditions: 144 h, read-out: pest death rate
Description: A formulation of any one of the present compounds (4), (5), (7), (12), (13), (18t), (18c), (22), (25t), (25c), (26t), (26c), (29), (30), (31), (32), (33), (34), (40), (41), (43), (49) and (55) obtained according to Formulation Example 36 was diluted with water so that the active ingredient concentration was 500 ppm to obtain a test solution.
as §1, with “2 male” for “10 female”, “Blattalla germanica” for “Musca domestica”, “6 days,” for “24 hours,”

Culex pipiens pallens = experiment: Test Example 6: larvae of Culex pipiens pallens in treated water; conditions: 24 h, read-out: pest death rate
Description: A formulation of any one of the present compounds (7), (11), (12), (13), (17), (18t), (18c), (22), (24), (25t), (25c), (26t), (26c), (27), (29), (33), (34), (35), (36), (38), (40), (41), (43), (47), (49), (50) and (55) obtained according to Formulation Example 36 was diluted with water so that the active ingredient concentration was 500 ppm to obtain a test solution.
To 100 mL of ion-exchanged water, 0.7 ml of the test solution was added (active ingredient concentration: 3.5 ppm). Into the solution, 20 last-instar larvae of Culex pipiens pallens were released. One day after, the number of surviving Culex pipiens pallens was examined and the death rate of the pest was calculated.

Structure (SMILES)	pest or weed control at 500 ppm (Musca domestica) [%]	pest or weed control at 500 ppm (Blattalla germanica) [%]	pest or weed control at 3.5 ppm (Culex pipiens pallens) [%]
FC(F)(F)CCSCC1CCC2(CC1)OCCO2 [present compound (1)]	≥ 90	–	–
O=S(=O)(CCC(F)(F)F)CC1CC=C(F)CC1 (stereo not drawn) [present compound (5)]	≥ 90	100	–
COC(=O)C(C1CCC(F)(F)CC1)S(=O)(=O)CCC(F)(F)F (stereo not drawn) [present compound (11), methyl 2-(4,4-difluorocyclohexyl)-2-(3,3,3-trifluoropropylsulfonyl)acetate]	≥ 90	–	≥ 95
COC(=O)C(F)(C1CCC(F)(F)CC1)S(=O)(=O)CCC(F)(F)F (stereo not drawn) [present compound (12), methyl 2-(4,4-difluorocyclohexyl)-2-fluoro-2-(3,3,3-trifluoropropylsulfonyl)acetate]	≥ 90	100	≥ 95
NC(=O)C(F)(C1CCC(F)(F)CC1)S(=O)(=O)CCC(F)(F)F (stereo not drawn) [present compound (13), 2-(4,4-difluorocyclohexyl)-2-fluoro-2-(3,3,3-trifluoropropylsulfonyl)acetamide]	≥ 90	100	≥ 95
O=S(=O)(CCC(F)(F)F)CC1CCC(C=C(Br)Br)CC1 (stereo not drawn) [present compound (17), 1-(2,2-dibromovinyl)-4-(3,3,3-trifluoropropylsulfonylmethyl)cyclohexane]	–	–	≥ 95
COC(=O)CCC#CC1CCC(CS(=O)(=O)CCC(F)(F)F)CC1 (stereo not drawn) [present compound (19), 5-[4-(3,3,3-trifluoropropylsulfonylmethyl)cycohexanyl]-4-pentynic acid methyl ester]	≥ 90	–	–
N#CC1CCC(CS(=O)(=O)CCC(F)(F)F)CC1 (stereo not drawn) [present compound (20), 1-cyano-4-(3,3,3-trifluoropropylsulfonylmethyl)cyclohexane]	≥ 90	–	–
CON=C1CCC(CS(=O)(=O)CCC(F)(F)F)CC1 (stereo not drawn) [present compound (21), 4-(3,3,3-trifluoropropylsulfonylmethyl)-cyclohexanone O-methyloxime]	≥ 90	–	–
FC(F)(F)CCSCC1CCC(C=C(Br)Br)CC1 (stereo not drawn) [present compound (24), 1-(2,2-dibromovinyl)-4-(3,3,3-trifluoropropylthiomethyl)cyclohexane]	≥ 90	–	≥ 95
C#CC1CCC(CSCCC(F)(F)F)CC1 (stereo not drawn) [present compound (25c)]	≥ 90	100	≥ 95
N#CC(C1CCC2(CC1)OCCO2)S(=O)(=O)CCC(F)(F)F (stereo not drawn) [present compound (27), 2-(1,4-dioxaspiro[4.5]dec-8-yl)-2-(3,3,3-trifluoropropylsulfonyl)acetonitrile]	≥ 90	–	≥ 95
CC(C)(C)ON=C1CCC(C(C#N)S(=O)(=O)CCC(F)(F)F)CC1 (stereo not drawn) [present compound (36), 2-[4-(t-butoxyimino)cyclohexyl]-2-(3,3,3-trifluoropropylsulfonyl)acetonitrile]	–	–	≥ 95
N#CC(C1CCC(=NOCc2ccccc2)CC1)S(=O)(=O)CCC(F)(F)F (stereo not drawn) [present compound (38), 2-[4-(O-benzylhydroxylimino)cyclohexyl]-2-(3,3,3-trifluoropropylsulfonyl)acetonitrile]	–	–	≥ 95
N#CC(C1CCCCC1)S(=O)(=O)CCC(F)(F)F (stereo not drawn) [present compound (47), 2-cyclohexyl-2-(3,3,3-trifluoropropylsulfonyl)acetonitrile]	–	–	≥ 95
CC1(C)CCC(C(C#N)S(=O)(=O)CCC(F)(F)F)CC1 (stereo not drawn) [present compound (50), 2-(4,4-dimethylcyclohexyl)-2-(3,3,3-trifluoropropylsulfonyl)acetonitrile]	≥ 90	–	≥ 95
